{"source": "patent US5541174A", "about": "“Analgesic method” (priority 1995, dated 1996)", "key": {"[1]": {"test_system": "acetic acid-induced writhing mouse pain model", "assay": "Measurement of time of peak activity in the acetic acid-induced writhing mouse pain model", "format": "in vivo", "settings": "584 umol/kg s.c.", "protocol": "Groups of 10 ICR male mice (Taisho Pharmaceutical Co. Research Center) were used to study each dose of every compound. […] Number of writhes were counted for each mouse during a period of 10 to 20 min after acetic acid injection. Inhibitory percent was calculated by comparison with the number of writhes in the non-treated control, vehicle-treated, and acetic acid-injected group. The ED50 value and 95% confidence limits were calculated from the inhibitory percent by the method of Litchfield and Wilcoxon.\n(§1) All drugs were suspended with 5% gum arabic in saline solution or wetted with enough propylene glycol to give a final concentration of 4% propylene glycol and the wetted solid suspended in 1.4% polyvinyl alcohol in saline."}, "[2]": {"test_system": "acetic acid induced writhing in mice", "assay": "Acetic acid-induced writhing test", "format": "in vivo, ICR male mice", "protocol": "1. Acetic acid-induced writhing test as described in Koster et al., \"Acetic Acid for Analgesic Screening\", Fed. Proc. 18, 412 (1959), incorporated by reference herein; and\nGroups of 10 ICR male mice (Taisho Pharmaceutical Co. Research Center) were used to study each dose of every compound. Ligands or complexes were administered orally or subcutaneously in 0.1 ml of vehicle per 10 g of body weight 30 minutes before the intrapertioneal injection of 0.1 ml of 0.7% acetic acid solution per 10 g of body weight. Number of writhes were counted for each mouse during a period of 10 to 20 min after acetic acid injection. Inhibitory percent was calculated by comparison with the number of writhes in the non-treated control, vehicle-treated, and acetic acid-injected group. The ED50 value and 95% confidence limits were calculated from the inhibitory percent by the method of Litchfield and Wilcoxon."}, "[3]": {"test_system": "adjuvant-induced arthritic pain in rats", "assay": "Adjuvant-induced arthritic pain", "format": "in vivo, male Sprague-Dawley rats", "settings": "oral", "from_the_text": "2. Adjuvant-induced arthritic pain as described in:\nS. KUZNA, et al., Measurement of Arthritic Pain and Effects of Analgesics in the Adjuvant-Treated Rat, Chem. Pharm. Bull. 23, 1184-1191 (1975);\nC. A. WINTER, et al., Analgesic Activity of Diflunisal in Rats with Hyperalygesia Induced by Freud's Adjuvant, J. Pharmacol. Exp. Ther. 211, 678-685 (1979; and\nM. E. ROSENTHALE, et al., Adjuvant Arthritis:Immuno-Pathological and Hyperalgesic Features, Fed. Proced. 41, 2577-2582 (1982),\nincorporated by reference herein.\nGroups of 5-6 male Sprague-Dawley rats (Taisho Pharmaceutical Co. Research Center) weighing 140 to 160 g at the time of Mycobacterium butyricum (adjuvant, Difco Laboratories, Detroit, Mich.) injection were used to study each compound. Rats were injected intradermally at the base of the tail with 0.1 ml of a parafin oil suspension of 0.5 mg of heat-killed mycobacterium. Fifteen to 19 days later, drugs were administered orally or subcutaneously in 0.5 ml of vehicle per 100 g of body weight to rats showing the nociceptive reaction, vocalization following a gentle flexion of the tarsal-tibial joint of the inflamed hind-paw. Vocalization responses were measured every hour for 5 hours. […] The ED50 value and 95% confidence limits were calculated from the positive rate for non-treated controls, vehicle-treated adjuvant arthritic rats, by the method of Litchfield and Wilcoxin.\nas §1"}}, "data": [{"smiles": "CCN(CC)C(=S)[S-].[Na+]", "note": "[NaDDC, sodium diethyldithiocarbamate, reference compound]", "values": [{"measurement": "Inhibition %", "setting": "[1]; 30 min", "value": 48, "unit": "%"}, {"measurement": "Inhibition %", "setting": "[1]; 60 min", "value": 53, "unit": "%"}, {"measurement": "Inhibition %", "setting": "[1]; 120 min", "value": 20, "unit": "%"}, {"measurement": "Inhibition %", "setting": "[1]; 180 min", "value": 18, "unit": "%"}]}, {"smiles": "Nc1ccccc1C(=O)O", "note": "[Anthranilic acid, reference compound]", "values": [{"measurement": "ED50", "setting": "[2]; oral, 5% gum arabic in saline", "value": "> 1.46", "unit": "mmol/kg"}, {"measurement": "% Inhibition", "setting": "[2]; oral, 5% gum arabic, 1.46 mmol/kg", "value": 18, "unit": "%"}, {"measurement": "ED50", "setting": "[2]; oral, PG-PVA in saline", "value": "> 2.19", "unit": "mmol/kg"}, {"measurement": "% Inhibition", "setting": "[2]; oral, PG-PVA, 2.19 mmol/kg", "value": 45, "unit": "%"}, {"measurement": "ED50", "setting": "[2]; s.c., PG-PVA in saline", "value": 0.64, "unit": "mmol/kg"}, {"measurement": "% Inhibition", "setting": "[2]; s.c., PG-PVA, 0.27 mmol/kg", "value": 30, "unit": "%"}, {"measurement": "% Inhibition", "setting": "[2]; s.c., PG-PVA, 0.55 mmol/kg", "value": 36, "unit": "%"}, {"measurement": "% Inhibition", "setting": "[2]; s.c., PG-PVA, 1.09 mmol/kg", "value": 71, "unit": "%"}, {"measurement": "ED50", "setting": "[3]; 5% gum arabic in saline", "value": 0.83, "unit": "mmol/kg"}, {"measurement": "% Inhibition", "setting": "[3]; 5% gum arabic, 0.36 mmol/kg", "value": 23, "unit": "%"}, {"measurement": "% Inhibition", "setting": "[3]; 5% gum arabic, 0.73 mmol/kg", "value": 41, "unit": "%"}, {"measurement": "% Inhibition", "setting": "[3]; 5% gum arabic, 1.46 mmol/kg", "value": 73, "unit": "%"}, {"measurement": "ED50", "setting": "[3]; PG-PVA in saline", "value": "> 1.44", "unit": "mmol/kg"}, {"measurement": "% Inhibition", "setting": "[3]; PG-PVA, 1.46 mmol/kg", "value": 37, "unit": "%"}]}, {"smiles": "O=C(O)c1ccccc1O", "note": "[Salicylic acid, reference compound]", "values": [{"measurement": "ED50", "setting": "[2]; oral, 5% gum arabic in saline", "value": 2.13, "unit": "mmol/kg"}, {"measurement": "% Inhibition", "setting": "[2]; oral, 5% gum arabic, 0.91 mmol/kg", "value": 29, "unit": "%"}, {"measurement": "% Inhibition", "setting": "[2]; oral, 5% gum arabic, 1.81 mmol/kg", "value": 33, "unit": "%"}, {"measurement": "% Inhibition", "setting": "[2]; oral, 5% gum arabic, 3.62 mmol/kg", "value": 73, "unit": "%"}, {"measurement": "ED50", "setting": "[2]; oral, PG-PVA in saline", "value": "> 2.17", "unit": "mmol/kg"}, {"measurement": "% Inhibition", "setting": "[2]; oral, PG-PVA, 2.17 mmol/kg", "value": 38, "unit": "%"}, {"measurement": "ED50", "setting": "[2]; s.c., PG-PVA in saline", "value": 1.02, "unit": "mmol/kg"}, {"measurement": "% Inhibition", "setting": "[2]; s.c., PG-PVA, 0.54 mmol/kg", "value": 25, "unit": "%"}, {"measurement": "% Inhibition", "setting": "[2]; s.c., PG-PVA, 1.09 mmol/kg", "value": 52, "unit": "%"}, {"measurement": "% Inhibition", "setting": "[2]; s.c., PG-PVA, 2.17 mmol/kg", "value": 80, "unit": "%"}, {"measurement": "ED50", "setting": "[3]; 5% gum arabic in saline", "value": 2.33, "unit": "mmol/kg"}, {"measurement": "% Inhibition", "setting": "[3]; 5% gum arabic, 1.09 mmol/kg", "value": 27, "unit": "%"}, {"measurement": "% Inhibition", "setting": "[3]; 5% gum arabic, 2.17 mmol/kg", "value": 57, "unit": "%"}, {"measurement": "% Inhibition", "setting": "[3]; 5% gum arabic, 4.34 mmol/kg", "value": 37, "unit": "%"}, {"measurement": "time course of analgesia", "setting": "[3]; 5% gum arabic, FIG. 1, 5 hours post-treatment", "value": "began to decline in the 3 to 4 hr interval following treatment"}, {"measurement": "ED50", "setting": "[3]; PG-PVA in saline", "value": 1.83, "unit": "mmol/kg"}, {"measurement": "% Inhibition", "setting": "[3]; PG-PVA, 0.72 mmol/kg", "value": 33, "unit": "%"}, {"measurement": "% Inhibition", "setting": "[3]; PG-PVA, 1.44 mmol/kg", "value": 43, "unit": "%"}, {"measurement": "% Inhibition", "setting": "[3]; PG-PVA, 2.88 mmol/kg", "value": 60, "unit": "%"}]}]}
